Experiments:
Format in all cases: in vivo, rat (male Sprague-Dawley)
[1] = system: insulin-resistant rats (after 24 hour fasting); test: Blood glucose-lowering effect in insulin-resistant (24 hour fasted) rats; conditions: for (A) Glucose (%), change vs placebo-treated control animals: blood, rats fasted 24 hours, 2 hours after oral administration of 100 μmol/kg, mean of 10 animals; for Superiority compared to the prior art with respect to lowering glucose after fasting: fasting as experimental model of insulin resistance, result in words
Protocol: The compounds of the formula I according to the invention lower the glucose concentration in the blood of rats which have been made insulin-resistant by prolonged fasting.
(§1) What is stated are the changes in per cent of the animals which have been treated with substance, compared to control animals which were treated with placebo, calculated from the mean values of in each case 10 individual values.
(§2) The test animals used were male Sprague-Dawley rats from the SPF breed Ivanovas (Kisslegg, Germany) having a body mass of 255-400 g. The animals were kept in a conventional manner, 4 animals each in cages made of Makrolon (22×38 cm) in a climatized room (21-23 degrees Celsius) with a fixed day/night rhythm (7a.m/7p.m) and a regulated relative atmospheric humidity of 55-60%. The animals received a maintenance diet—Altromin 1320 from Altromin (Lage, Germany)—and water ad libitum.
To determine the effect of the substance on blood glucose, feed was withdrawn 24 hours before the administration of the substance to produce an insulin-resistant condition.
(§3) The animals were divided at random in 5 groups of 10 animals each and marked. The substances were administered to the animals in the form of a neutral, aqueous emulsion (1 part by weight of substance+2 parts by weight of Cremophor EL—an emulsifier from BASF AG, Germany—) in a volume of 10 ml/kg of body weight using a stomach tube.
To determine the glucose in the blood, 50 μl of blood were collected from the retrobulbular venousplexus 2 hours after the administration of the substance, using a glass capillary, from animals which had been fasting for 24 hours, and the blood was deproteinated in ice-cold perchloric acid (0.66 mol/l). After centrifugation, the glucose was determined in the supernatant using enzymatic standard methods.
Enzymatic test with hexokinase/[…], test combination from Boehringer Mannheim, Germany.

fed, healthy rats [2] = test: Triglyceride-lowering effect in blood plasma of fed, healthy rats; conditions: for (B) Triglycerides (%), change vs placebo-treated control animals: blood plasma, fed healthy rats, oral 100 μmol/kg for 16 days, 24 hours after last administration, mean of 10
Protocol: as §1, §2, §3
(§4) To determine the parameters triglycerides, cholesterol and the activity of the glutamic-pyruvic transaminase (GPT), blood plasma was used. The blood plasma was obtained as an erythrocyte-free supernatant 15 minutes after venous blood sampling into heparinized Eppendorf reaction vessels by centrifugation (2×2 minutes at 16,000 rpm in an Eppendorf centrifuge).
Enzymatic test with lipase/glycerokinase, test combination from Boehringer Mannheim, Germany.

fed, healthy rats [3] = test: Cholesterol-lowering effect in blood plasma of fed, healthy rats; conditions: oral 100 μmol/kg for 16 days, 24 hours after last administration, mean of 10
Protocol: as §1, §2, §3, §4
Enzymatic colour test (CHOD-PAP method), test combination from Boehringer Mannheim, Germany.

healthy, fed rats [4] = test: Increase in activity of liver enzyme glutamic-pyruvate transaminase (GPT) in blood plasma; conditions: oral equimolar doses for 16 days, 24 hours after last administration
From the text: as §2, §3, §4
Kinetic enzyme test, test combination from Boehringer Mannheim, Germany.

healthy, fed rats [5] = test: Increase of relative weight of the heart (cardiac hypertrophy); conditions: weight of heart/100 g body weight, oral equimolar doses for 16 days, 24 hours after last administration
From the text: as §2, §3
The animals were killed by decapitation and exsanguination, and the weight of the heart muscle, which had been freed from the right atrium, was determined by weighing and based on 100 g of body. weight.

healthy, fed rats [6] = test: Pharmacological safety index; conditions: for (C) Safety index (%): lowering of glucose + triglycerides + cholesterol in per cent divided by increase of GPT activity + relative heart weight in per cent, higher = safer; for Safety index compared to the prior art: result in words, from Table 2
From the text: The higher the index, the greater the safety of the substance.

| SMILES | (A) Glucose (%), change vs placebo-treated control animals [1] | (B) Triglycerides (%), change vs placebo-treated control animals (fed, healthy rats [2]) | (C) Cholesterol (%), change vs placebo-treated control animals (fed, healthy rats [3]) | (A) GPT activity (%), increase (healthy, fed rats [4]) | (B) Relative weight of the heart (%), increase (healthy, fed rats [5]) | (C) Safety index (%) (healthy, fed rats [6]) | Superiority compared to the prior art with respect to lowering glucose after fasting [1] | Effect compared to the prior art, taking into account the triglyceride- and cholesterol-lowering effect (fed, healthy rats [2]; result in words, from Tab. 1) | Safety index compared to the prior art (healthy, fed rats [6]) |
| --- | --- | --- | --- | --- | --- | --- | --- | --- | --- |
| CCOC(=O)C1(CCCCCCOc2ccc(Cl)cc2)CO1 (stereo not drawn) [Substance 1] | −18% | −50% | −15% | 8% | 14% | 3.77% | – | – | – |
| CCOC(=O)C1(CCCCCOc2ccc(OC(F)F)cc2)CO1 (stereo not drawn) [Substance 3] | −27% | −73% | −26% | 12% | 11% | 5.48% | particularly pronounced | superior to the prior art | superior to the prior art |
| CCOC(=O)C1(CCCCCCOc2ccc(OC(F)F)cc2)CO1 (stereo not drawn) [Substance 2] | −27% | −69% | −13% | 5% | 14% | 5.74% | particularly pronounced | – | superior to the prior art |
| CCOC(=O)C1(CCCCCOc2ccc(C(C)=O)cc2)CO1 (stereo not drawn) [Substance 4] | −7% | −41% | −8% | −9% | −2% | 56% | – | – | particularly superior to the prior art |

— patent US6670481B2, “Oxiranecarboxylic acids for the treatment of diabetes” (Medicone AG Gesellschaft fur Molekularbiologische …, priority 1997, dated 2003)
